This assay concerns the target T1, AR protein in VCaP cells (Homo sapiens, UniProt P10275).
T1 construct: endogenous in cells; host or cells: VCaP cells
T1 sequence (P10275 1-920): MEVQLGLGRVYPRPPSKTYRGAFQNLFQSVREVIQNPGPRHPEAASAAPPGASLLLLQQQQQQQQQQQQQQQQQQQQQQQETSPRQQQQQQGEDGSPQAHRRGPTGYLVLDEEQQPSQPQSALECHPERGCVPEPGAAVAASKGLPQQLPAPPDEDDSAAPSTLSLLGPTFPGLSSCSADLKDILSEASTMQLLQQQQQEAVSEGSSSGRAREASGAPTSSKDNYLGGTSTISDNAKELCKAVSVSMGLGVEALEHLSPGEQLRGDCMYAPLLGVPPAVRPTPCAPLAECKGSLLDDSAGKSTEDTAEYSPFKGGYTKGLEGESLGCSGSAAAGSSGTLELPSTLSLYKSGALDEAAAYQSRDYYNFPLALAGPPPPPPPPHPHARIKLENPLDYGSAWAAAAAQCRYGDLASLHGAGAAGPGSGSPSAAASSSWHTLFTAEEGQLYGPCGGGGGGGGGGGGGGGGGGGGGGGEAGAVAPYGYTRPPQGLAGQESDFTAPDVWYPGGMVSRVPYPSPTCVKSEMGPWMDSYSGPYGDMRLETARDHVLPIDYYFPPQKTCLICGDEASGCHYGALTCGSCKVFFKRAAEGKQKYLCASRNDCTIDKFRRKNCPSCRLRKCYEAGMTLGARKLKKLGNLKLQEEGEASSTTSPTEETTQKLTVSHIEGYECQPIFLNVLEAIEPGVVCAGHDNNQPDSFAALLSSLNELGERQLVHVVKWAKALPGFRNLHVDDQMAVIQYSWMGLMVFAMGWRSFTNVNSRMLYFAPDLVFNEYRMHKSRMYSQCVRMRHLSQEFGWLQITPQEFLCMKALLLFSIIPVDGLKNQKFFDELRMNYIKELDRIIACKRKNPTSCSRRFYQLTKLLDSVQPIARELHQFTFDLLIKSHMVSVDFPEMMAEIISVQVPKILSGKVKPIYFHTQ
The assay can be described thus: VCAP AR Degradation Assay (AR ELISA, 24 h). The following applies: for Y (lowest measured AR level normalized to DMSO control): AR degradation efficiency; for DC50: concentration of compound when AR level = 50% of DMSO control. It is filed as cell-based. The method, then: VCAP AR Degradation Assay.
Test compounds were pre-dispensed into a Corning CellBind 96-well clear bottom plate (Cat #3300) using an acoustic dispenser to make a 10-point concentration series at 1:3 dilution for each compound. The final top concentration of each compound was […]. DMSO at a final concentration of 0.1% was used as a control. VCaP cells cultured in DMEM with 8% fetal bovine serum (FBS) were seeded at 50K cells per well in a 200 μL volume into the compound plate and incubated at 37° C. in a CO2 incubator for 24 h. The medium was carefully removed from the cells and the plate was placed on ice. One hundred […] of ice-cold 1× cell lysis buffer from Cell Signaling Technologies (Cat #9803) was added to each well of the cells and the plate was incubated at 4° C. on a shaker for 1 h. Fifteen […] of cell lysate was used for AR ELISA detection using a PathScan Total Sandwich AR ELISA kit (Cell Signaling Technology, Cat #12580). AR levels in compound-treated wells were normalized to that of DMSO control and expressed as percent of control (PoC) (y). A Four Parameter Logistic Model (Sigmoidal Dose-Response Model) was used to determine the compound's DC50, and EC50, using the following equation: y=(A+((B−A)/(1+((C/x)^D)))) • A=YMin (lowest AR level normalized to DMSO control in response to compound • treatment, as determined by curve fit) • B=YMax (maximum AR level as determined by curve fit) • C=EC50 • D=Hill Slope • x=compound concentration • EC50=the concentration of compound when y=(YMax−YMin)/2 • DC50=the concentration of the compound when y=50% of DMSO control (50% AR degradation) • y=AR protein level normalized to DMSO control
The lowest measured AR level normalized to DMSO control in response to compound treatment, termed Y value, was used to characterize the compound-mediated AR degradation efficiency.
For orientation: In an ELISA, binding on a coated surface is turned into a signal by an enzyme label.

The structures appear in SMILES notation. Like-named read-outs stand apart in the source and are kept apart here.

Consider `CCc1cc(N2C(=S)N(c3cnc(C#N)c(C(F)(F)F)c3)C(=O)C23CCC3)ccc1OCCC1C[C@H]2CC[C@@H](C1)N2CC(=O)Nc1cc(Cl)cc(NC2CCC(=O)NC2=O)c1` (stereo partly drawn) [Cmpd 69, N-(3-chloro-5-(2,6-dioxopiperidin-3-ylamino)phenyl)-2-((1R,5S)-3-(2-(4-(7-(6-cyano-5-(trifluoromethyl)pyridin-3-yl)-8-oxo-6-thioxo-5,7-diazaspiro[3.4]octan-5-yl)-2-ethylphenoxy)ethyl)-8-azabicyclo[3.2.1]octan-8-yl)acetamide], for which the “Y (lowest measured AR level normalized to DMSO control)” value is “** (25%<Y<=35%)” and the DC50 is 100 to 500 nM.

Take `CCc1cc(N2C(=S)N(c3ccc(C#N)c(C(F)(F)F)c3)C(=O)C23CCC3)ccc1OCCC1CCN(CC(=O)Nc2cccc(NC3CCC(=O)NC3=O)c2)CC1` (stereo not drawn) [Cmpd 43, 2-(4-(2-(4-(7-(4-cyano-3-(trifluoromethyl)phenyl)-8-oxo-6-thioxo-5,7-diazaspiro[3.4]octan-5-yl)-2-ethylphenoxy)ethyl)piperidin-1-yl)-N-(3-(2,6-dioxopiperidin-3-ylamino)phenyl)acetamide]: the “Y (lowest measured AR level normalized to DMSO control)” value is listed as “* (0<Y<=25%)”. For the same compound, the DC50 (read-out: DC50) is under 100 nM.

With `CCc1cc(N2C(=S)N(c3cnc(C#N)c(C(F)(F)F)c3)C(=O)C2(C)C)ccc1OCCC1CCN(CC(=O)Nc2cccc(NC3CCC(=O)NC3=O)c2)CC1` (stereo not drawn) [Cmpd 12, 2-(4-(2-(4-(3-(6-cyano-5-(trifluoromethyl)pyridin-3-yl)-5,5-dimethyl-4-oxo-2-thioxoimidazolidin-1-yl)-2-ethylphenoxy)ethyl)piperidin-1-yl)-N-(3-(2,6-dioxopiperidin-3-ylamino)phenyl)acetamide], the “Y (lowest measured AR level normalized to DMSO control)” value is recorded as “* (0<Y<=25%)”. The DC50 (read-out: DC50) was under 100 nM.

`CCc1cc(N2C(=S)N(c3ccc(C#N)c(C(F)(F)F)c3)C(=O)C2(C)C)ccc1OCCC1CCN([C@@H](C)C(=O)Nc2cc(Cl)cc(NC3CCC(=O)NC3=O)c2)CC1` (stereo partly drawn) [Cmpd 26, (2S)-N-(3-chloro-5-(2,6-dioxopiperidin-3-ylamino)phenyl)-2-(4-(2-(4-(3-(4-cyano-3-(trifluoromethyl)phenyl)-5,5-dimethyl-4-oxo-2-thioxoimidazolidin-1-yl)-2-ethylphenoxy)ethyl)piperidin-1-yl)propanamide]: the “Y (lowest measured AR level normalized to DMSO control)” value is “* (0<Y<=25%)”. Besides, the 50% degradation concentration (DC50) (read-out: DC50) was in the range of 100 to 500 nM.

Regarding `CCc1cc(N2C(=S)N(c3ccc(C#N)c(C(F)(F)F)c3)C(=O)C23CCC3)ccc1OCCC1CCN(CC(=O)Nc2cc(NC3CCC(=O)NC3=O)ccc2F)CC1` (stereo not drawn) [Cmpd 57, 2-(4-(2-(4-(7-(4-cyano-3-(trifluoromethyl)phenyl)-8-oxo-6-thioxo-5,7-diazaspiro[3.4]octan-5-yl)-2-ethylphenoxy)ethyl)piperidin-1-yl)-N-(5-(2,6-dioxopiperidin-3-ylamino)-2-fluorophenyl)acetamide], the “Y (lowest measured AR level normalized to DMSO control)” value was “* (0<Y<=25%)”. The DC50 (read-out: DC50) lay within 100 to 500 nM.

With `CCc1cc(N2C(=S)N(c3ccc(C#N)c(C(F)(F)F)c3)C(=O)C23CCC3)ccc1OCCC1CCN(CC(=O)Nc2cc(Cl)cc(NC3CCC(=O)NC3=O)c2)CC1` (stereo not drawn) [Cmpd 28, N-(3-chloro-5-(2,6-dioxopiperidin-3-ylamino)phenyl)-2-(4-(2-(4-(7-(4-cyano-3-(trifluoromethyl)phenyl)-8-oxo-6-thioxo-5,7-diazaspiro[3.4]octan-5-yl)-2-ethylphenoxy)ethyl)piperidin-1-yl)acetamide], the “Y (lowest measured AR level normalized to DMSO control)” value is given as “* (0<Y<=25%)”. Further, for the setting “read-out: DC50”, the DC50 was in the range of 100 to 500 nM.

As for `CC(C)c1cc(N2C(=S)N(c3ccc(C#N)c(C(F)(F)F)c3)C(=O)C2(C)C)cnc1OCC[C@H]1C[C@@H](C)N(CC(=O)Nc2cccc(NC3CCC(=O)NC3=O)c2)[C@@H](C)C1` (stereo partly drawn) [Cmpd 94, 2-((2S,4r,6R)-4-(2-((5-(3-(4-cyano-3-(trifluoromethyl)phenyl)-5,5-dimethyl-4-oxo-2-thioxoimidazolidin-1-yl)-3-isopropylpyridin-2-yl)oxy)ethyl)-2,6-dimethylpiperidin-1-yl)-N-(3-((2,6-dioxopiperidin-3-yl)amino)phenyl)acetamide], the “Y (lowest measured AR level normalized to DMSO control)” value is “** (25%<Y<=35%)”. Further, for the setting “read-out: DC50”, the DC50 is 500 to 1000 nM.

Turning to `CCc1cc(N2C(=S)N(c3ccc(C#N)c(C(F)(F)F)c3)C(=O)C2(C)C)ccc1OCC[C@H]1CCN(CC(=O)Nc2cc(NC3CCC(=O)NC3=O)ccc2F)[C@H](C)C1` (stereo partly drawn) [Cmpd 82, 2-((2R,4S)-4-(2-(4-(3-(4-cyano-3-(trifluoromethyl)phenyl)-5,5-dimethyl-4-oxo-2-thioxoimidazolidin-1-yl)-2-ethylphenoxy)ethyl)-2-methylpiperidin-1-yl)-N-(5-(2,6-dioxopiperidin-3-ylamino)-2-fluorophenyl)acetamide], the “Y (lowest measured AR level normalized to DMSO control)” value is “** (25%<Y<=35%)”. Moreover, under “read-out: DC50”, the DC50 was in the range of 100 to 500 nM.

`CCc1cc(N2C(=S)N(c3cnc(C#N)c(C(F)(F)F)c3)C(=O)C2(C)C)ccc1OC1C[C@H]2CC[C@@H](C1)N2CC(=O)Nc1cccc(NC2CCC(=O)NC2=O)c1` (stereo partly drawn) [Cmpd 87, 2-((1R,3s,5S)-3-(4-(3-(6-cyano-5-(trifluoromethyl)pyridin-3-yl)-5,5-dimethyl-4-oxo-2-thioxoimidazolidin-1-yl)-2-ethylphenoxy)-8-azabicyclo[3.2.1]octan-8-yl)-N-(3-(2,6-dioxopiperidin-3-ylamino)phenyl)acetamide]: the “Y (lowest measured AR level normalized to DMSO control)” value is “*** (35%<Y<50%)”. Also, under “read-out: DC50”, the DC50 was 500 to 1000 nM.

Consider `CCc1cc(N2C(=S)N(c3cnc(C#N)c(C(F)(F)F)c3)C(=O)C2(C)C)ccc1OCCC1CCN(CC(=O)Nc2cc(NC3CCC(=O)NC3=O)ccc2F)CC1` (stereo not drawn) [Cmpd 15, 2-(4-(2-(4-(3-(6-cyano-5-(trifluoromethyl)pyridin-3-yl)-5,5-dimethyl-4-oxo-2-thioxoimidazolidin-1-yl)-2-ethylphenoxy)ethyl)piperidin-1-yl)-N-(5-(2,6-dioxopiperidin-3-ylamino)-2-fluorophenyl)acetamide], for which the “Y (lowest measured AR level normalized to DMSO control)” value is on record as “* (0<Y<=25%)”. Also, the DC50 (read-out: DC50) is under 100 nM.

With `CCc1cc(N2C(=S)N(c3cnc(C#N)c(C(F)(F)F)c3)C(=O)C2(C)C)ccc1OCCC1CCN(C2(C(=O)Nc3cc(Cl)cc(NC4CCC(=O)NC4=O)c3)CC2)CC1` (stereo not drawn) [Cmpd 34, N-(3-chloro-5-(2,6-dioxopiperidin-3-ylamino)phenyl)-1-(4-(2-(4-(3-(6-cyano-5-(trifluoromethyl)pyridin-3-yl)-5,5-dimethyl-4-oxo-2-thioxoimidazolidin-1-yl)-2-ethylphenoxy)ethyl)piperidin-1-yl)cyclopropanecarboxamide], the “Y (lowest measured AR level normalized to DMSO control)” value was “*** (35%<Y<50%)”. Moreover, the DC50 (read-out: DC50) was in the range of 500 to 1000 nM.

Regarding `CCc1cc(N2C(=S)N(c3cnc(C#N)c(C(F)(F)F)c3)C(=O)C2(C)C)ccc1OCCC1CCN([C@@H](C)C(=O)Nc2cc(Cl)cc(NC3CCC(=O)NC3=O)c2)CC1` (stereo partly drawn) [Cmpd 23, (2S)-N-(3-chloro-5-(2,6-dioxopiperidin-3-ylamino)phenyl)-2-(4-(2-(4-(3-(6-cyano-5-(trifluoromethyl)pyridin-3-yl)-5,5-dimethyl-4-oxo-2-thioxoimidazolidin-1-yl)-2-ethylphenoxy)ethyl)piperidin-1-yl)propanamide], the “Y (lowest measured AR level normalized to DMSO control)” value was “* (0<Y<=25%)”. For the setting “read-out: DC50”, the DC50 was under 100 nM.

In general, DC50 refers to the concentration giving 50% degradation.

The record behind these values is patent US11325889B2, “Substituted 3-((3-aminophenyl)amino)piperidine-2,6-dione compounds, compositions thereof, and methods of treatment therewith” (Celgene Corporation, priority 2018, dated 2022).
